Experimental data as given in patent publication US20080026996A1, “Selective Vpac2 Receptor Reptide Agonists” (ELI LILLY AND COMPANY, priority 2004, published 2008).
Values joined by “and” are separate entries in the source; they are usually repeats but may differ in a detail not shown here. Identical values can stand only once. Where no end group is shown, it is not given here. [ ]: non-standard residue; d: D form. The star is where a group is joined. hArg = N=C(N)NCCCC[C@H](N)C(=O)O; Hexanoyl = CCCCCC(=O)*

How the values were obtained:
[1] = biological target: T1, human PAC1 (Homo sapiens, UniProt P41586); experiment: DiscoveRx cAMP in vitro potency, CHO-PO cells transiently transfected with human PAC1 receptor; assay type: cell-based; design: expressed in transfected cells; host or cells: CHO-PO, transient (Lipofectamine); conditions: cAMP generation; mean of two independent runs; read-out: Human PAC1 Receptor: DiscoveRx EC50
T1 sequence (P41586 21-468): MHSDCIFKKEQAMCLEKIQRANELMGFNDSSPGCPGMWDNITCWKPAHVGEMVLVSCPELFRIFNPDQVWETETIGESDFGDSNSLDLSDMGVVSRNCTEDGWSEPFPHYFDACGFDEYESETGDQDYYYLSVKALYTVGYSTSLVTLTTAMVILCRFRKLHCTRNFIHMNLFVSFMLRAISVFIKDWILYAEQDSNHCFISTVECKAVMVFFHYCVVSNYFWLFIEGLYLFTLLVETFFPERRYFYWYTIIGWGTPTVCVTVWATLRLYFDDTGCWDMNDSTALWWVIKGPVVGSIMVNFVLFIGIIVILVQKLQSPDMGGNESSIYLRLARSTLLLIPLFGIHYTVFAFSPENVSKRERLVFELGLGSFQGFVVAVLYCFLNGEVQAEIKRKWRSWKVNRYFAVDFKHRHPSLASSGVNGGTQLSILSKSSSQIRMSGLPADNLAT
Procedure: (§1) Also, the cells are washed twice. The cells are incubated in assay buffer plus IBMX for 15 minutes at room temperature. […] The stimuli are present for 30 minutes. Then, the assay buffer is gently removed. […] At day 3, the assay described above for the VPAC2 receptor cell line is performed.

[2] = biological target: T2, human VPAC2 (Homo sapiens, UniProt P41587); experiment: DiscoveRx cAMP in vitro potency, CHO-S cell line stably expressing human VPAC2 receptor; assay type: cell-based; conditions: cAMP generation; mean of two independent runs
T2 construct: expressed in transfected cells
T2 sequence (P41587 24-438): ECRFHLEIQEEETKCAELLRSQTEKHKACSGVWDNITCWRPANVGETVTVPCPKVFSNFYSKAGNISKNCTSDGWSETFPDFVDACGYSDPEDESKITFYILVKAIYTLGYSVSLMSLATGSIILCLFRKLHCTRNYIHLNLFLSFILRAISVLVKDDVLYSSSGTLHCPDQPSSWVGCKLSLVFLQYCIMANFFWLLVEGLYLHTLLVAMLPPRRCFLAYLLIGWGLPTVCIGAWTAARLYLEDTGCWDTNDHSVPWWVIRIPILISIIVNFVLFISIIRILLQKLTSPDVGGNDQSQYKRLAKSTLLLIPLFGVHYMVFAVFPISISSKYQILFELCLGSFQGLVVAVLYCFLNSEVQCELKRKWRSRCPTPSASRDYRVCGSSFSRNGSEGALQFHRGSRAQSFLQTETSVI
Procedure: as §1

[3] = biological target: T2, human VPAC2; experiment: Filter binding assay, membranes of stable VPAC2 cell line, 125I-labeled VIP tracer (Table 2); conditions: read-out: Human VPAC2 Receptor Binding
Summary of the method: (§2)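 Radioligand displacement was measured with 2.5 μg membrane protein per well and roughly 40000 cpm of iodinated tracer. After a 1-hour incubation, bound and free label were separated on BSA-blocked glass-fibre filters and quantified by scintillation.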

[4] = biological target: T3, human VPAC1 (Homo sapiens, UniProt P32241); experiment: Filter binding assay, membranes of cells transiently transfected with human VPAC1, 125I-labeled VIP tracer (Table 2); design: expressed in transfected cells; conditions: read-out: Human VPAC1 Receptor Binding
T3 sequence (P32241 31-457): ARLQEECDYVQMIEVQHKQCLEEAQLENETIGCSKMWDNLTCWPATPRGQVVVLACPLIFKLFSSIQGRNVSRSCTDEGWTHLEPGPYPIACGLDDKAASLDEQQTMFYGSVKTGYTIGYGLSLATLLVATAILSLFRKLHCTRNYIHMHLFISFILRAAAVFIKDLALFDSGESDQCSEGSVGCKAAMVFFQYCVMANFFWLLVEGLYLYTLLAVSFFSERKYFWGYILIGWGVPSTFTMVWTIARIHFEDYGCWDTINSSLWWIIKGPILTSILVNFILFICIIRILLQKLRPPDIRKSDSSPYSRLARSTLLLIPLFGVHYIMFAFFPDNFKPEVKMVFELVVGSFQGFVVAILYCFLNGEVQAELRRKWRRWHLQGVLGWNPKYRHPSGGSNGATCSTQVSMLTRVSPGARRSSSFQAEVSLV
Summary of the method: as §2

[5] = biological target: T4, DPP-IV (Sus scrofa, UniProt P22411); experiment: DPP-IV HPLC assay: in vitro incubation with purified dipeptidyl-peptidase IV; assay type: in vitro ADME, Porcine
T4 construct: purchased Sigma
Procedure: Part 1: Formulation of Selective VPAC2 Receptor Peptide Agonists: […]
Approximately 2 mg of lyophilized peptide is weighed and dissolved in approximately 1.6 mL de-ionized water. […] After incubation at room temperature for 30 minutes, 1/10th of the original volume 10×PBS is added. The pH is adjusted to between pH 7.2 and 7.6. The peptide solution is filtered through a 0.22 μm Millex-GV syringe filter (Millipore, Bedford Mass., USA). The peptide concentration is determined through absorption at 280 nm. The peptide concentration is then adjusted to 100 μM. The peptides are frozen at −20° C. for further use.
Part 2: In Vitro Incubation of Selective VPAC2 Receptor Peptide Agonists with Purified Dipeptidyl-Peptidase IV (DPP-IV):
The stability of selective VPAC2 receptor peptide agonists against proteolysis by DPP-IV is determined using 100 μL of a 100 μM peptide solution in 1×PBS. A 10 μL solution is removed and quenched with 40 μL of 0.1% trifluoroacetic acid (TFA)/20% acetonitrile (ACN). This solution (20 μL) is analyzed by reversed-phase HPLC. The reversed-phase analysis consists of a Zorbax 300SB-C8 column (3.5 micron, 4.6×50 mm, Alltech Associates, Inc., Deerfield Ill., USA) running a 15-40% B gradient over 15 minutes at 60° C. where A-buffer is 0.1% (v/v) TFA in water and B-buffer is 0.085% (v/v) TFA in ACN. The peak area is integrated. This peak area serves as an internal control as 100% intact peptide.
A 10 μL aliquot of a 1.12 mU/μL solution of DPP-IV (Sigma, St. Louis, La., USA) is added to 90 μL of a 100 μM solution of peptide, resulting in a substrate concentration of 90 μM peptide. The reaction mixture is then stored at 37° C. At various time-points, 10 μL of solution is removed, quenched with 40 μL 0.1% TFA/20% ACN, and analyzed by reversed-phase HPLC as described above. The remaining full length peptide concentration (nM) at each timepoint, except time=0, is calculated using following formula: [formula]
For the time=0 timepoint, the concentration (nM) is calculated using the following formula: [formula]

[6] = biological target: T2, human VPAC2; experiment: Alpha screen cAMP in vitro potency, human VPAC2 receptor; assay type: cell-based; conditions: cAMP generation; single result from two analyses performed in a single run; read-out: Human VPAC2 Receptor: Alpha Screen EC50
Summary of the method: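 This followed a 60 min stimulation of 50,000 enzyme-free-dissociated cells per point with acceptor beads in stimulation buffer.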

[7] = biological target: T1, human PAC1; experiment: Filter binding assay, membranes of cells transiently transfected with human PAC1, 125I-labeled PACAP-27 tracer (Table 2); design: expressed in transfected cells; conditions: read-out: Human PAC1 Receptor Binding
Summary of the method: as §2

T4 sequence (P22411 whole entry): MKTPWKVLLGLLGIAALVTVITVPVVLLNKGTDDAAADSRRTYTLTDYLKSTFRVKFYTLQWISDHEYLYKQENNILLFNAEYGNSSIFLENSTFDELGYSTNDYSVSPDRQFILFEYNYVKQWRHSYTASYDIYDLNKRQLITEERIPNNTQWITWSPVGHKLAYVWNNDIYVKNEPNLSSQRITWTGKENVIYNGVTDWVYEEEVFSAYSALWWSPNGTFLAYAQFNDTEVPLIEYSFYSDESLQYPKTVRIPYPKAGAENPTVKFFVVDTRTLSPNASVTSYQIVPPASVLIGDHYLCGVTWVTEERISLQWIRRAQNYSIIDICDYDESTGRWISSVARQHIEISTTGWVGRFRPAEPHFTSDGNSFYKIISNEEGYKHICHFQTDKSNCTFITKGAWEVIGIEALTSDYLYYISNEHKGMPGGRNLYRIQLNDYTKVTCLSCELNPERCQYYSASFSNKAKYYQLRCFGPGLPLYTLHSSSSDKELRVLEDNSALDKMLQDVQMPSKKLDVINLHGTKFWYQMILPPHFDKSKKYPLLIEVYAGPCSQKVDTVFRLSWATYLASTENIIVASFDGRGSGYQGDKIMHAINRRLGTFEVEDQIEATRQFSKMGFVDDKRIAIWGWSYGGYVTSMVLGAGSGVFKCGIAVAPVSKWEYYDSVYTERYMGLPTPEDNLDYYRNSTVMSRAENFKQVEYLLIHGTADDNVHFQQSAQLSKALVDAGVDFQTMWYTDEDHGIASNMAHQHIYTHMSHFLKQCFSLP

Substance | EC50 [1] [nM] | EC50 [2] [nM] | IC50 [3] [nM] | IC50 [4] [nM] | other results
Ac-HSDAVFTDNYTRLRKQVAAKKYLQSIKNKRYGGPSSGAPPPS [Agonist P33] | 111 | 0.86 | 2.31 | 120 | –
H-HTDAVFTDNYTRLRKQVAAKKYLQSIKNKRYGGPSSGAPPPS [Agonist P45] | 315 | 11.6 | – | – | –
VPAC2-P44 (HVDAVFTDNYTRLRKQVAAKKYLQSIKNKRYGGPSSGAPPPS; not fully specified (N-terminus)) | – | – | – | – | Concentration (nM) of Remaining Main Peak by RP-HPLC after Incubation of Peptide with Purified Porcine DPP-IV ([5]; Time = 0 hours at 37° C.): 9.0 nM; Concentration (nM) of Remaining Main Peak by RP-HPLC after Incubation of Peptide with Purified Porcine DPP-IV ([5]; Time = 2 hours at 37° C.): 6.4 nM and 7.9 nM and 4.5 nM and 6.5 nM
HSDIVFTDNYTRLRKQVAAKKYLQSIKNKRYGGPSSGAPPPS [Agonist P50] | – | 19.3 | – | – | –
HSDAVFTDNYTRLRKQVAAKKYLQSIKNKRYGGPSSGAPPPS [Agonist P6] | > 40 | – | 2.58 | 195 | EC50 [6]: 3.19 nM; IC50 [7]: 334 nM
H[dA]DAVFTDNYTRLRKQVAAKKYLQSIKNKRYGGPSSGAPPPS [VPAC2-P47] | – | – | – | – | Concentration (nM) of Remaining Main Peak by RP-HPLC after Incubation of Peptide with Purified Porcine DPP-IV ([5]; Time = 0 hours at 37° C.): 9.0 nM; Concentration (nM) of Remaining Main Peak by RP-HPLC after Incubation of Peptide with Purified Porcine DPP-IV ([5]; Time = 2 hours at 37° C.): 7.9 nM; Concentration (nM) of Remaining Main Peak by RP-HPLC after Incubation of Peptide with Purified Porcine DPP-IV ([5]; Time = 6 hours at 37° C.): 6.1 nM; Concentration (nM) of Remaining Main Peak by RP-HPLC after Incubation of Peptide with Purified Porcine DPP-IV ([5]; Time = 24 hours at 37° C.): 2.8 nM
HSDATFTDNYTRLRKQVAAKKYLQSIKNKRYGGPSSGAPPPS [Agonist P62] | 137 | 13.2 | – | – | –
HSDAVFTDNYTRAAAKVAAKKYLQSIKNKRYGGPSSGAPPPS [Agonist P88] | – | > 1000 | 93.9 | 979 | –
HSDAVFTDNYTRLRKQVAAKKYLQSIKNGRPSSGAPPPS [Agonist P92] | – | 8.2 | 0.86 | 74.6 | –
HSDAVFTDNYTRLRKQVAAKKYLQSIKNRRYGGPSSGAPPPS [Agonist P25] | 137 | – | 1.65 | 233 | –
H-HSDAVFTDNYTRLRKQVAARKYLQSIKNKRYGGPSSGAPPPS [Agonist P20] | > 25 | 2.13 | 2.5 | 98.7 | –
HSDAFFTDNYTRLRKQVAAKKYLQSIKNKRYGGPSSGAPPPS [Agonist P58] | 35.6 | – | – | – | –
HSDAVFTDNYTRLRKQVAASKYLQSIKNKRYGGPSSGAPPPS [Agonist P21] | > 100 | – | 4.94 | 385 | EC50 [6]: 11.6 nM
Hexanoyl-HSDAVFTDNYTRLLAKLALQKYLQSIKNKRYGGPSSGAPPPS [VPAC2-P119] | – | – | – | – | Concentration (nM) of Remaining Main Peak by RP-HPLC after Incubation of Peptide with Purified Porcine DPP-IV ([5]; Time = 0 hours at 37° C.): 9.0 nM; Concentration (nM) of Remaining Main Peak by RP-HPLC after Incubation of Peptide with Purified Porcine DPP-IV ([5]; Time = 2 hours at 37° C.): 8.0 nM; Concentration (nM) of Remaining Main Peak by RP-HPLC after Incubation of Peptide with Purified Porcine DPP-IV ([5]; Time = 6 hours at 37° C.): 6.6 nM; Concentration (nM) of Remaining Main Peak by RP-HPLC after Incubation of Peptide with Purified Porcine DPP-IV ([5]; Time = 24 hours at 37° C.): 4.2 nM
Hexanoyl-HSDAVFTDNYTRLRKQVAAKKYLQSIKNKRYGGPSSGAPPPS [VPAC2-P31] | – | – | – | – | Concentration (nM) of Remaining Main Peak by RP-HPLC after Incubation of Peptide with Purified Porcine DPP-IV ([5]; Time = 0 hours at 37° C.): 9.0 nM; Concentration (nM) of Remaining Main Peak by RP-HPLC after Incubation of Peptide with Purified Porcine DPP-IV ([5]; Time = 2 hours at 37° C.): 8.0 nM and 7.0 nM and 6.7 nM; Concentration (nM) of Remaining Main Peak by RP-HPLC after Incubation of Peptide with Purified Porcine DPP-IV ([5]; Time = 6 hours at 37° C.): 6.7 nM and 6.1 nM and 5.6 nM; Concentration (nM) of Remaining Main Peak by RP-HPLC after Incubation of Peptide with Purified Porcine DPP-IV ([5]; Time = 24 hours at 37° C.): 2.2 nM and 2.6 nM and 3.9 nM
MHSDAVFTDNYTRLRKQVAAKKYLQSIKNKRYGGPSSGAPPPS [VPAC2-P104] | – | – | – | – | Concentration (nM) of Remaining Main Peak by RP-HPLC after Incubation of Peptide with Purified Porcine DPP-IV ([5]; Time = 0 hours at 37° C.): 9.0 nM; Concentration (nM) of Remaining Main Peak by RP-HPLC after Incubation of Peptide with Purified Porcine DPP-IV ([5]; Time = 2 hours at 37° C.): 7.8 nM; Concentration (nM) of Remaining Main Peak by RP-HPLC after Incubation of Peptide with Purified Porcine DPP-IV ([5]; Time = 6 hours at 37° C.): 6.6 nM; Concentration (nM) of Remaining Main Peak by RP-HPLC after Incubation of Peptide with Purified Porcine DPP-IV ([5]; Time = 24 hours at 37° C.): 4.1 nM
HSDAVFTDNWTRLRKQVAAKKYLQSIKNKRYGGPSSGAPPPS [Agonist P27] | > 100 | – | – | – | –
HSDTVFTDNYTRLRKQVAAKKYLQSIKNKRYGGPSSGAPPPS [Agonist P54] | > 1000 | – | – | – | –
HSDYVFTDNYTRLRKQVAAKKYLQSIKNKRYGGPSSGAPPPS [Agonist P51] | > 1000 | – | – | – | –
HSDAVFTDNYTRLRKQVAAKKYLQSIKN[hArg]RYGGPSSGAPPPS [Agonist P24] | > 100 | – | 1.97 | 198 | –
H-HSDAVFTDNYTRAKAKVAAKKYLQSIKNKRYGGPSSGAPPPS [Agonist P94] | – | > 1000 | 71.5 | 271 | –
